Measured values published in patent publication US20260355329A1, “PRODRUG LINKER COMPOSITIONS AND METHODS OF USE” (priority 2023, published 2026).
Values after ≈ are worked out from the molar mass of the structure shown. “Also recorded” adds a separate entry of the source. Blank lines part the entries; values can stand above or below the compound they belong to. Peptide text beside a SMILES is read from it. * marks the point of attachment. ACC = NC(=O)Cc1cc(=O)oc2cc(N*)ccc12

What was measured:
[1] = Release of ACC from Ac-Linker-ACC conjugates in mouse serum (serum stability); assay type: in vitro ADME; conditions: role: substrate; 50% mouse serum, 8 h
Protocol: (§1) With the hit candidate in-hand, scarless cleavage was assessed with the turn-on fluorescent probe 7-amino-4-carbamoylmethylcoumarin (ACC), which only fluoresces when the ACC fluorophore is cleaved without an amino acid scar. To discover a scarless linker for LEHELGN (SEQ ID NO: 7), the following ACC conjugates (FIG. 9) were synthesized and cleavage rates were compared in 50% mouse serum and A. baumannii periplasmic extracts (FIGS. 10 and 11): Ac-LEHELGN-ACC (SEQ ID NO: 8), Ac-LEHELG-ACC (SEQ ID NO: 9), Ac-LEHEL-ACC (SEQ ID NO: 10), Ac-LEHE-ACC (SEQ ID NO: 11), Ac-LEH-ACC (SEQ ID NO: 12), Ac-LE-ACC, and Ac-L-ACC (note: Ac=acetyl).
To determine how each amino acid contributed to the selectivity of linker LEHELG (SEQ ID NO: 1), an ala scan was conducted. […] The cleavage rates of ala-substituted variants (P1-P6) were determined in mouse serum and in the periplasmic extracts from six strains of A. baumannii (FIG. 12).
Periplasmic extracts and mouse serum were not diluted prior to use in fluorescence assays and were allowed to undergo only one freeze-thaw cycle prior to use. […] The plate was sealed with a transparent polyolefin silicone film (Thermofisher™ Nuc™ Sealing Tape, 12-565-513) and placed in a plate reader at 37 °C with shaking at 225 rpm for 8 hours. […]

[2] = tested on: A. baumannii periplasmic extract; assay: Release of ACC from Ac-Linker-ACC conjugates in A. baumannii periplasmic extract; assay type: biochemical; conditions: role: substrate, 8 h
Protocol: as §1
To determine how each amino acid contributed to the selectivity of linker LEHELG (SEQ ID NO: 1), an ala scan was conducted. Each position of the LEHELG (SEQ ID NO: 1) linker was substituted with a single alanine, the simplest amino acid containing a stereocenter, to create six variants. The P1 position is the amino acid directly adjacent to the cleavage site, which is conjugated to the ACC turn-on fluorophore. The cleavage rates of ala-substituted variants (P1-P6) were determined in mouse serum and in the periplasmic extracts from six strains of A. baumannii (FIG. 12). […]
Periplasmic extracts and mouse serum were not diluted prior to use in fluorescence assays and were allowed to undergo only one freeze-thaw cycle prior to use. […]

HL60 cells = assay: Cell viability assay (MTT) in HL60 cells; assay type: cell-based; conditions: Homo sapiens, HL-60, 24 h, 0.07-10 μM, FIG. 14
Protocol: Cell Culture: HL-60 cells were cultured at 37 °C in a 5% CO2 atmosphere. The cells were grown in Iscove's Modified Dulbecco's Medium, supplemented with 20% fetal bovine serum (FBS) and 0.1% penicillin-streptomycin. Media was replaced every other day until cells reached the desired confluency.
Viability Assay: HL-60 cells (4×10^3) were seeded in a 96-well plate in cell culture media (100 μL) for 24 hours at the atmosphere stated above (5% CO2). After incubation, the cells were treated with 10 μL of vehicle or drug (0.07-10 μM, n=6) for 24 hours at 37 °C. Cell viability was assessed using MTT. MTT media (30 μL, 5 mg/mL) was added to each well for 2 hours and plate was centrifuged at 500×g for 5 minutes after, followed by media aspiration. The formazan crystals left were solubilized in DMSO and absorbance (540 nm) was measured using a microplate reader (SpectraMax M5). Data obtained was normalized to the vehicle to generate final values. The graph plotted in FIG. 14 is depicted as the mean±SEM vs. compound concentration.

A baumannii WC487 = assay: MIC, broth microdilution; assay type: cell-based; conditions: Acinetobacter baumannii, MH-II broth, 16 h, 37 °C, dipyridyl 200 μM for siderophore conjugates
Excerpt: (§2) For full conjugate synthesis, the HMM siderophore (see FIG. 3) was chosen due to its ability to actively transport antibiotics into diverse bacteria. Solithromycin was chosen as a warhead to determine the quality of the cleavable linker in bacteria and to provide insight into the ability of the conjugate to actively transport through membranes. Solithromycin is a broad-spectrum antibiotic (G^+ and […]), and conjugates with this warhead require cleavage for activity, except in cases where the conjugate is actively transported to the cytoplasm, where the intact conjugate engages the target ribosome. When the minimum inhibitory concentration (MIC, minimum amount of drug to inhibit growth) of solithromycin equals the MIC of its cleavable L-linker conjugate, it indicates quantitative drug release, assuming the non-cleavable D-linker conjugate is not active (Table 1). D-linkers are not cleaved by most proteases.
(§3) Broth and Agar Preparation: Mueller-Hinton II (MH-II, cation-adjusted) broth was prepared from solid MH-II (22 g) and MilliQ H2O (1 L), which was autoclaved in a presterilized 1-L glass bottle. The autoclaved MH-II media contained dipyridyl (DP, 200 μM) for MIC assays involving siderophore conjugates. MH-II agar plates were prepared from autoclaved MH-II (22 g), Bacto agar (17 g), and MilliQ water (1 L). The bacterial strains were obtained from glycerol stocks.
(§4) Bacteria Culture Preparation: Bacteria were streaked on MH-II agar plates from glycerol stocks. The streaked plates were placed in an incubator at 37 °C without shaking for 18-hours. A sterilized pipet tip was gently touched on the surface of a single colony and added to autoclaved MH-II broth (5 mL) in a sterilized 14-mL culture tube. The cultures were incubated for 18 hours at 37 °C with shaking at 215 rpm. The cultures were diluted 200-fold into autoclaved MH-II broth (4 mL) and incubated at 37 °C with shaking at 215 rpm for 3-5 hours, or until an OD 600 of 0.5 was achieved. An aliquot of the culture (1 mL) was transferred to a sterilized culture tube and diluted with filter-sterilized PBS (~7 mL) until an OD600 of 0.13-0.15 was achieved. An aliquot ([…]) of the cultures was then transferred into MH-II media (15-mL) to achieve a concentration of 1×10^5 cells/mL. The diluted cultures (90 μL/well) were then added to substrate (10 μL at the following concentrations: 640 μg/mL, 320 μg/mL, 160 μg/mL, 80 μg/mL, 40 μg/mL, 20 μg/mL, 10 μg/mL, and 0 μg/mL in sterilized 96-well plates to achieve a final substrate concentration of 64 μg/mL, 32 μg/mL, 16 μg/mL, 8 μg/mL, 4 μg/mL, 2 μg/mL, 1 μg/mL, and 0 μg/mL. The 96-well plates were then sealed with sterilized gas-permeable covers. The plates were incubated at 37 °C with shaking at 215 rpm for 16 hours. Each well condition was prepared in triplicate, and each MIC assay was repeated on a different day. The turbidity of each well was examined visually and the MIC was counted as the lowest concentration that lacked turbidity.

A. baumannii 5075 = assay: MIC, broth microdilution; assay type: cell-based; conditions: Acinetobacter baumannii, MH-II broth, 16 h, 37 °C, dipyridyl 200 μM for siderophore conjugates
Excerpt: as §2, §3, §4

E. aerogenes ATCC 13048 = assay: MIC, broth microdilution; assay type: cell-based; conditions: Klebsiella aerogenes, ATCC13048, MH-II broth, 16 h, 37 °C, dipyridyl 200 μM for siderophore conjugates
Excerpt: as §2, §3, §4

E. coli DCO = assay: MIC, broth microdilution; assay type: cell-based; conditions: Escherichia coli, MH-II broth, 16 h, 37 °C, dipyridyl 200 μM for siderophore conjugates
Excerpt: as §2, §3, §4

E. coli K12 MG1655 = assay: MIC, broth microdilution; assay type: cell-based; conditions: Escherichia coli, MH-II broth, 16 h, 37 °C, dipyridyl 200 μM for siderophore conjugates
Excerpt: as §2, §3, §4

K. pneumoniae KPPR1 = assay: MIC, broth microdilution; assay type: cell-based; conditions: Klebsiella pneumoniae, MH-II broth, 16 h, 37 °C, dipyridyl 200 μM for siderophore conjugates
Excerpt: as §2, §3, §4

K. pneumoniae MGH 78578 = assay: MIC, broth microdilution; assay type: cell-based; conditions: Klebsiella pneumoniae, MGH78578, MH-II broth, 16 h, 37 °C, dipyridyl 200 μM for siderophore conjugates
Excerpt: as §2, §3, §4

S. enterica 14028s = assay: MIC, broth microdilution; assay type: cell-based; conditions: Salmonella enterica, MH-II broth, 16 h, 37 °C, dipyridyl 200 μM for siderophore conjugates
Excerpt: as §2, §3, §4

S. typhi ATCC 700931 = assay: MIC, broth microdilution; assay type: cell-based; conditions: Salmonella enterica, MH-II broth, 16 h, 37 °C, dipyridyl 200 μM for siderophore conjugates
Excerpt: as §2, §3, §4

SMILES: CC(=O)N[C@@H](CC(C)C)C(=O)N[C@@H](CCC(=O)O)C(=O)N[C@@H](C)C(=O)N[C@@H](CCC(=O)O)C(=O)N[C@@H](CC(C)C)C(=O)NCC(=O)Nc1ccc2c(CC(N)=O)cc(=O)oc2c1 [Ac-LEAELG-ACC, Ac-LEAELG(SEQ ID NO: 3)-ACC] (Ac-LEAELG-{ACC})
stability in serum / release of ACC in serum (in words) [1]: did not show a significant loss of serum stability relative to the parent peptide | cleavage rate / release of ACC in periplasmic extract (in words) [2]: dramatically enhanced the cleavage rates in periplasmic extracts

SMILES: CC(=O)N[C@@H](CC(C)C)C(=O)N[C@@H](CCC(=O)O)C(=O)N[C@@H](Cc1c[nH]cn1)C(=O)N[C@@H](CCC(=O)O)C(=O)N[C@@H](CC(C)C)C(=O)NCC(=O)Nc1ccc2c(CC(N)=O)cc(=O)oc2c1 [Ac-LEHELG-ACC, Ac-LEHELG(SEQ ID NO: 63)-ACC] (Ac-LEHELG-{ACC})
stability in serum / release of ACC in serum (in words) [1]: Minimal release of ACC; also recorded: highest stability in mouse serum compared to all ala-substituted variants | cleavage rate / release of ACC in periplasmic extract (in words) [2]: cleaving rapidly

EC50 (HL60 cells): 1 µM
SMILES: CO[C@@]12[C@H](COC(N)=O)C3=C(C(=O)C(C)=C(N)C3=O)N1C[C@@H]1N[C@@H]12 [mitomycin C, reference compound]

SMILES: CC[C@H]1OC(=O)[C@@](C)(F)C(=O)[C@H](C)[C@@H](O[C@@H]2O[C@H](C)C[C@H](N(C)C)[C@H]2O)[C@](C)(OC)C[C@@H](C)C(=O)[C@H](C)[C@H]2N(CCCCn3cc(-c4cccc(N)c4)nn3)C(=O)O[C@]12C [solithromycin]
MIC (A baumannii WC487): 4 µM (≈ 3.38 µg/mL) | MIC (A. baumannii 5075): 8 µM (≈ 6.76 µg/mL) | MIC (E. aerogenes ATCC 13048): 8 µM (≈ 6.76 µg/mL) | MIC (E. coli DCO): < 1 µM | MIC (E. coli K12 MG1655): < 1 µM | MIC (K. pneumoniae KPPR1): 4 µM (≈ 3.38 µg/mL) | MIC (K. pneumoniae MGH 78578): 4 µM (≈ 3.38 µg/mL) | MIC (S. enterica 14028s): 8 µM (≈ 6.76 µg/mL) | MIC (S. typhi ATCC 700931): 8 µM (≈ 6.76 µg/mL)
